According to US10273333B2, “Substituted polyesters by thiol-ene modification: rapid diversification for therapeutic protein stabilization” (THE REGENTS OF THE UNIVERSITY OF CALIFORNIA, priority 2014, dated 2019):

Tests used:
[1] = target: T1, granulocyte colony-stimulating factor (G-CSF) (Homo sapiens, UniProt P09919); experiment: G-CSF stabilization studies; G-CSF bioactivity by NFS-60 cell proliferation (CellTiter-Blue); assay type: cell-based; conditions: 60° C. for 30 minutes; small molecules at the concentration of stabilizing units in pCL-zwitterion80, Tween 80 and polymers at 100 weight equivalents; FIG. 74
T1 construct: host or cells: E. coli
T1 sequence (P09919 31-204 isoform P09919-2 limits assumed): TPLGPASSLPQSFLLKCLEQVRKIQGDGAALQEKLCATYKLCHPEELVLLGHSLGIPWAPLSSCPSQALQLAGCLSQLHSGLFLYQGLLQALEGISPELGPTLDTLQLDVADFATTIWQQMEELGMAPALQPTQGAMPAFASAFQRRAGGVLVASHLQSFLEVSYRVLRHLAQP
Procedure: G-CSF Stabilization Studies: G-CSF samples (25 μL) were prepared in 10 mM acetate buffer, pH 4.0 at 1 μg/mL with 100 equivalents polymer additive by weight. Samples were stored at 4° C. for 90 minutes or 60° C. for 30 minutes and then were diluted with cold RPMI-1640 medium+10% FBS (735 μL). The samples were then further diluted with RPMI-1640+10% FBS to a final concentration of 1 ng/mL. G-CSF bioactivity was then assayed in a NFS-60 mouse myelogenous leukemia lymphoblast cell line. NFS-60 cells were cultured in RPMI-1640 medium supplemented with 10% FBS and 2 ng/mL interleukin-3 (IL-3) at 37° C./5% CO2. NFS-60 cells were passaged at least three times before used in proliferation experiments. Prior to treating NFS-60 cells with G-CSF samples, NFS-60 cells were collected and resuspended in RPMI-1640 with 10% FBS (without additional growth factors). Cells were plated in the internal wells of a 96 well plate at a density of 20,000 cells per well in 50 μL of medium. G-CSF solution (50 μL) was then added to provide a final concentration of 0.5 ng/mL and total well volume of 100 μL. Following 48 h incubation at 37° C./5% CO2, CellTiter-Blue viability assay was performed to measure cell proliferation. All experimental groups were normalized to the control of the control of media alone without G-CSF addition. All p values were calculated using the independent Student's t test assuming unequal variances.
Next the ability of the polymer to protect protein activity against environmental stressors was assessed. The therapeutic protein granulocyte colony-stimulating factor (G-CSF) was selected to compare excipient efficacy due to its clinical importance. […] G-CSF is highly unstable at physiological pH and is therefore stored at pH 4.0; still at this pH the protein readily degrades upon storage or subjection to heat (Krishnan et al., 2002). […] Protein activity was determined by measuring cell proliferation in murine myeloid leukemia NFS-60 cells, which is enhanced in the presence of GCSF, and compared to the proliferation of freshly diluted protein (Shirafuji et al., 1989).

[2] = Differential scanning calorimetry (DSC): melting and crystallization enthalpy of water; assay type: physicochemical; conditions: 1 mol % of the stabilizing unit; for ΔHc (change in crystallization enthalpy of water) / ΔHm (change in melting enthalpy of water): relative to water; for Hc (crystallization enthalpy of water) / Hm (melting enthalpy of water): second heat/cool run, in J/g (unit assumed)
Procedure: Solutions of trehalose, betaine, pCL-trehalose80, and pCL-zwitterion80 were made at 1 mol % of the stabilizing unit (trehalose or betaine) and analyzed by DSC (TA Instruments Q2000). Runs were carried out using two heat/cool cycles from −40° C. to 40° C. at […] and values were taken from the second run.

β-galactosidase (β-Gal) = conditions: three 12-hour desiccation (lyophilization) cycles; excipient; FIG. 12b
Procedure: The stabilization of β-Gal against lyophilization stress was also measured. […] The activity of β-Gal was determined by reaction with ortho-nitrophenol galactose (ONPG). When incubated with β-Gal, release of the yellow-colored o-nitrophenol from ONPG can be monitored at 405 nm.
The activity of β-Gal was determined by reaction with ortho-nitrophenol galactose (ONPG). When incubated with β-Gal, release of the yellow-colored o-nitrophenol from ONPG can be monitored at 405 nm.
Lyophilization studies with β-galactosidase were carried out as previously described; 8-Gal was subjected to three 12 hour lyophliization cycles before dilution. Activity was assayed by monitoring the hydrolysis of o-nitrophenol galactose (ONPG) at 405 nm.

lysozyme = lysozyme (Gallus gallus, UniProt P00698); experiment: Lysozyme stabilization against heat stress (90° C., 20 minutes), EnzChek lysozyme activity assay; assay type: biochemical; conditions: heated 90° C. for 20 minutes; 5 to 25 wt eq. excipient; FIG. 12a
Chain of lysozyme (P00698 19-147): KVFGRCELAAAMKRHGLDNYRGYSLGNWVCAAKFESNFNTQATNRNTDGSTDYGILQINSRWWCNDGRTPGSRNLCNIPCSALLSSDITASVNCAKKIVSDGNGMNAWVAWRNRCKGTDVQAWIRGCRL
Procedure: The ability of these biodegradable trehalose polymers to stabilize proteins was confirmed through heat and lyophilization stress assays. […] Therefore, these proteins were also selected to test the biodegradable trehalose polymers. First, lysozyme was stressed by heating to 90° C. for 20 minutes.
[…] Samples were further diluted to a concentration of 0.021 mg/mL (1 kU/mL) and […] aliquots were prepared in 0.5 mL LoBind Eppendorf tubes. Each aliquot was heated to 90° C. for 20 minutes at 500 rpm, then cooled to 4° C. and centrifuged for 1 minute at 10,000 rpm. Samples were stored at 4° C. until activity was evaluated all together using the EnzChek® lysozyme activity assay.
Aliquots containing 20 μL of lysozyme-glycopolymer solution were diluted to 100 μL with PBS pH 7.4. 50 μL of the resulting solution was removed and incubated with 50 μL of Micrococcus luteus labeled with FITC (1 mg/mL) at 37° C. for 30 minutes in a 96-well plate. The resulting fluorescence was measured (abs 480 nm/em 530 nm) and quantified relative to a known concentration curve. Statistics to determine significance were calculated using the Students t test; % confidence as +/−=t(standard deviation)/(number of trials)½ with p<1−% confidence/100.

| G-CSF activity / cell proliferation, comparison with small-molecule excipients [1] | SMILES | ΔHc (change in crystallization enthalpy of water) [2] | ΔHm (change in melting enthalpy of water) [2] | Hc (crystallization enthalpy of water) [2] | Hm (melting enthalpy of water) [2] | β-Gal activity maintained (of native activity) (β-galactosidase (β-Gal)) | lysozyme activity retained (of native activity) (lysozyme) |
| --- | --- | --- | --- | --- | --- | --- | --- |
| maintained high protein activity | CCCCCCCC/C=C\CCCCCCCC(=O)OCCOCC(OCCO)C1OCC(OCCO)C1OCCO (stereo not shown) [Tween 80, polysorbate 80] | – | – | – | – | – | – |
| little stabilizing effect | C[N+](C)(C)CC(=O)O [betaine] | 73.2 | −98.4 | −179 | 198.1 | – | – |
| little stabilizing effect | OC[C@H]1O[C@@](CO)(O[C@H]2O[C@H](CO)[C@@H](O)[C@H](O)[C@H]2O)[C@@H](O)[C@@H]1O [sucrose] | – | – | – | – | – | – |
| – | OC[C@H]1O[C@H](O[C@H]2O[C@H](CO)[C@@H](O)[C@H](O)[C@H]2O)[C@H](O)[C@@H](O)[C@@H]1O [trehalose] | 22.3 | −47.4 | −229.9 | 249.1 | up to 67% | not significantly different from the negative control |
